Series [1] is described as follows: Clearance in male mouse at 20 mg/kg, iv. Format: ADME, organism-based. The settings on record: in vivo.
Series [2] can be described thus: AUC (0 to infinity) in male mouse at 5 mg/kg, po. Type of series: ADME, organism-based. The settings on record: in vivo.
The test system of series [3] is Hepatitis B virus. Put plainly: Antiviral activity against HBV infected in human HepG2 cells expressing NTCP assessed as fold increase in intracellular capsid level at 1 uM incubated for 6 days by Western blot analysis relative to control. Format: functional. The conditions noted are these: time 6 day.
The test system of series [4] is Hepatitis B virus. Nature of the series: Antiviral activity against HBV infected in human HepG2 cells expressing NTCP assessed as decrease in intracellular HBc level at 1 uM incubated for 6 days by indirect immunofluorescence staining based analysis. Format: functional, organism-based. The settings on record: time 6.0 day.
The subject of series [5] is Hepatitis B virus. Put plainly: Antiviral activity against HBV infected in human HepG2 cells expressing NTCP assessed as fold reduction in capsid associated viral DNA level at 1 uM incubated for 6 days by Southern blot analysis relative to control. Format: functional. The settings on record: time 6 day.
The nature of series [6]: Half life in male mouse at 5 mg/kg, iv. Type of series: ADME, organism-based. The settings on record: in vivo.
A short description of series [7]: Oral bioavailability in male mouse at 5 mg/kg. Type of series: ADME, organism-based. The conditions noted are these: in vivo.
Series [8] concerns Hepatitis B virus. Put plainly: Antiviral activity against HBV infected in human HepG2 cells expressing NTCP assessed as viral DNA replication at 1 uM incubated for 6 days by Southern blot analysis (reference value: 100 %). The conditions noted are these: time 6 day. Type of series: functional.
Series [9] is described as follows: Cytotoxicity in human HepG2.2.15 cells assessed as reduction in cell viability. Format: toxicity, cell-based, HepG2 2.2.15.
The test system of series [10] is Hepatitis B virus. Nature of the series: Antiviral activity against HBV infected in human HepG2 cells expressing NTCP assessed as intracellular HBc level at 1 uM incubated for 6 days by Western blot analysis (reference value: 100 %). Type of series: functional. The conditions noted are these: time 6 day. (In western blotting, separated proteins are transferred to a membrane and probed.)

Series [11] in a line: Selectivity index, ratio of CC50 for cytotoxicity in human HepG2.2.15 cells assessed as reduction in cell viability to EC50 for antiviral activity against HBV in human HepG2.2.15 cells assessed as reduction in viral replication. Type of series: toxicity, cell-based. The conditions noted are these: read-out: Ratio CC50/EC50.
Series [12] deals with Hepatitis B virus. Put plainly: Antiviral activity against HBV infected in human HepG2 cells expressing NTCP assessed as capsid associated HBV DNA level at 1 uM incubated for 6 days by Western blot analysis (reference value: 100 %). Format: functional. The settings on record: time 6 day.
Series [13] can be described thus: Metabolic stability in mouse liver microsomes assessed as compound remaining measured after 30 mins. Type of series: ADME, Microsome. The settings on record: read-out: Stability. For orientation: Liver microsomes are a subcellular fraction often used to study metabolism.
The nature of series [14]: Cytotoxicity in HFL1 cells. The settings on record: human. Type of series: toxicity, cell-based.
Series [15] in a line: Cytotoxicity in human HepaRG cells assessed as reduction in cell viability. Type of series: toxicity, cell-based.

Broadly, the clearance is a measure of how efficiently the substance is removed, as volume per time. A low value points to a low capacity for elimination. One may read the AUC(0-inf) as total exposure, with the tail of the curve extrapolated. A low value points to low exposure. As usually defined, the half-life is the time in which the quantity being followed falls by half. Low values mean fast loss, high ones slow loss. Broadly, the bioavailability is dose-corrected exposure relative to a reference, in per cent. The low end stands for poor availability, the high end for good availability. One may read the CC50 as the concentration at which the toxic effect on the cells reaches its halfway point. By IC50 is commonly meant the midpoint of a concentration-inhibition curve. Read a low IC50 as greater potency in that assay.

As for `Nc1cc(F)c(S(=O)(=O)NC2COC2)cc1C(=O)Nc1ccc(F)c(C(F)F)c1`, the clearance in series [1] was 65.5 mL/min/kg. The same molecule gave an AUC(0-inf) in series [2] of 570 ng·h/mL. In addition, the “fold change (FC)” value is recorded as ~2 in series [3] and 16 in series [5]. In addition, the Activity entry was “Active; Compound Modestly Decreased Hbc Level” in series [4], 6% in series [8], 113% in series [10] and 14% in [12]. The half-life in [6] was 8.89 h. The bioavailability in series [7] was found to be 66.2%. In addition, the 50% cytotoxic concentration (CC50) in [9] was > 900 µM; in series [15], > 100 µM. Moreover, the selectivity ratio in series [11] is > 17500. Besides, the remaining at 0.5 h in [13] came out at 56.8%. Besides, in series [14], the IC50 is > 100 µM.

For the origin of these results see ChEMBL document CHEMBL6177968, “Development of sulfamoylbenzamide-based capsid assembly modulators for hepatitis B virus capsid assembly” (Eur J Med Chem, 2025).
